The values below come from paper PMC9187519, “In vivo visualization of fluorescence reflecting CDK4 activity in a breast cancer mouse model” (MedComm, 2022).

For experiment [1], the system named is CDK4 kinase activity in MCF‐7 cells. Put plainly: Cell microplate fluorescence imaging with CPP30‐Lipo/CDKACT4. The experiment is classed as cell-based, human. As to conditions: n = 3; for reduction of fluorescence intensity: probe 12 h. The protocol:
(§1) Cells (∼8 × 10^3 cells per well) were seeded in black 96‐well plates and incubated with CPP30‐Lipo/CDKACT4 for 12 h after siRNA transfection or treatment with graded concentrations of palbociclib (HY‐50767; Medchemexpress). Then, the cells were washed three times with PBS and refilled with fresh PBS. Cell fluorescence signals were immediately detected using the IVIS Lumina II imaging system (PerkinElmer).

For a further experiment, the system named is CDK4. The arrangement: method as in PMID 31482107. Conditions: for CDK4; cited from earlier work. The source says:
We next investigated whether CPP30‐Lipo/CDKACT4 could be used to monitor the inhibition by the CDK4 inhibitor palbociclib in living cells.

In a further experiment the test system is MCF‐7 cells. Put plainly: Cell cycle analysis (propidium iodide, flow cytometry). As to conditions: MCF‐7, increasing concentration of palbociclib, n = 3. The experiment is classed as cell-based, human. The protocol: Cells were harvested and fixed in 70% ethanol at 4 °C overnight. Then, the samples were incubated in a solution of 10 mg/ml RNase and 1 mg/ml propidium iodide (Yeasen Biotech) at 37 °C for 30 min in the dark. The DNA content was determined using flow cytometry (Becton, Dickinson & Co.).
A general note: In flow cytometry, cells or beads pass a laser one at a time.

A further experiment relates to MCF‐7 tumor xenografts. Put plainly: In‐vivo fluorescence imaging, MRI and tumor analysis of MCF‐7 tumor xenografts. More on the design: species or system BALB/c nude mice. As to conditions: for change of tumor/muscle (T/M) fluorescence signal ratio: 150 mg/kg daily oral gavage 7 days, pre vs post, average, n = 6. The protocol: For MCF‐7 tumor model establishment, 6–8‐week old female BALB/c nude mice purchased from Xiamen University Laboratory Animal Center were first subcutaneously implanted with 60‐day release 17β‐estradiol pellets (Innovative Research of America) in the right side of the neck. Three days later, 2 × 10^6 MCF‐7 cells were injected subcutaneously in 1:1 PBS:Matrigel (BioCoat) into the right leg of the nude mice. Tumors were measured by caliper two or three times per week.
When MCF‐7 tumors grew to a volume of 75–100 mm^3, the mice were randomly divided into two groups (n = 6) and given palbociclib (150 mg/kg diluted in […] sodium D‐lactate) or sterile water daily by oral gavage. Magnetic resonance imaging was performed before (0 days) and 7 days after treatment using a 9.4T BioSpec MicroMRI (Bruker), and fluorescence imaging was also performed using the IVIS Lumina II imaging system (PerkinElmer) at the observation time points after intravenous injection with CPP30‐Lipo/CDKACT4 (10 μl/g body weight, containing 30 μM CDKACT4). After imaging, tumor tissue was collected for IHC staining.
Tumors were fixed in 4% paraformaldehyde, embedded in paraffin, and cut into 4‐μm slices. Then, the sections were stained with rabbit monoclonal antibody to Rb (Phospho S795) (1:100 dilution, ab47474; Abcam) or Ki67 (1:500 dilution, 9449; CST). Finally, the sections were observed under an optical microscope.

The test system of experiment [2] is CDK4 kinase activity in T‐47D cells. Put plainly: Cell microplate fluorescence imaging with CPP30‐Lipo/CDKACT4 in T‐47D. The experiment is classed as cell-based, human. As to conditions: different concentrations of palbociclib, n=3. The protocol: as §1
A further experiment deals with T1, CDK4/Cyclin D (Homo sapiens, UniProt P11802).
T1 construct: Fluorescence changes of CDKACT4 biosensor incubated with MCF‐7 cell extracts; endogenous in cells; host or cells: MCF-7 breast cancer cell extracts
T1 sequence (P11802 2-303 limits assumed): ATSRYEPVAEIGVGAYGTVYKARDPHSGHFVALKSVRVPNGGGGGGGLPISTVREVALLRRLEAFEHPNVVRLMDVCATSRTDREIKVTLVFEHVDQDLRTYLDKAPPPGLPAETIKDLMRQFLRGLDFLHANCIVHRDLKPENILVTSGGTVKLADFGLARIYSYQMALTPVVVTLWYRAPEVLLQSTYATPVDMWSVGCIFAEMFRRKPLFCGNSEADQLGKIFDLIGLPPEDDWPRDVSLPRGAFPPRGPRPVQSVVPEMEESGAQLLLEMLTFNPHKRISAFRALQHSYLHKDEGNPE
T1 sequence (P24385 whole entry partner): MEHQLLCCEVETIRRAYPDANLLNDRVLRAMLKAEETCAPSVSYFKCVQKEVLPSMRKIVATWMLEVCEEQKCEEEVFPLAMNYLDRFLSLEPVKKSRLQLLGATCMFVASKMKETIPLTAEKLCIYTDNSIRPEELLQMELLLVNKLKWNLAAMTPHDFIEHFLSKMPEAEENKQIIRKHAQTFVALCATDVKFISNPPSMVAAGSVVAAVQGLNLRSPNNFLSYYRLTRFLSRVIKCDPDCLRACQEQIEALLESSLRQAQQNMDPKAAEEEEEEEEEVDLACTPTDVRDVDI
Put plainly: CDKACT4 biosensor fluorescence in MCF‐7 cell extracts. The experiment is classed as biochemical. Conditions: incubation with cell extracts prepared with different concentrations of palbociclib, n = 5. The protocol:
We initially determined whether the CDKACT4 peptide biosensor that we synthesized was effective at monitoring CDK4 kinase activity in MCF‐7 breast cancer cell extracts.
FIGURE 2 Characterization and spectral stability of CPP30‐Lipo/CDKACT4. (A) Fluorescence changes of CDKACT4 biosensor incubated with MCF‐7 cell extracts (red), CDKACT4 alone (blue), and cell extracts alone (green) during 180 min (n = 5). (B) Relative fluorescence intensity of CDKACT4 biosensor incubated with MCF‐7 cell extracts was monitored over time after treatment with different concentrations of palbociclib (n = 5). (C) Relative fluorescence intensity of MCF‐7 cell extracts‐incubated CDKACT4 at 120 min post‐treated with different concentrations of palbociclib from (b) (n = 5, **p < 0.01). (D) Transmission electron microscopy (TEM) images of CPP30‐Lipo/CDKACT4. Scale bar = 200 nm. (E) Diameter distribution of CPP30‐Lipo/CDKACT4. (F, G) UV–vis absorption spectra (F) and fluorescence emission spectra (G) of water, 5‐TAMRA, CDKACT4, and CPP30‐Lipo/CDKACT4. (H, I) Changes in absorption and fluorescence spectra of CPP30‐Lipo/CDKACT4 during 96 h in water. The samples were stored at room temperature in the dark

Experiment [3] has as its system pRb (S795) in MCF‐7 cells. Put plainly: Western blot of pRb (S795). The experiment is classed as cell-based, human. The protocol:
Cells or minced tumor tissues were washed three times with ice‐cold PBS and lysed in RIPA buffer containing protease inhibitor cocktail (Roche Molecular Systems) and phosphatase inhibitor cocktail (Bimake). Tissues were further ground using a glass homogenizer on ice. Protein concentrations were determined with a BCA kit (Solarbio). Subsequent steps were performed as recently described.[36]
For orientation: A western blot detects proteins with antibodies after separation by electrophoresis.

Each structure is given as a SMILES string.

For the molecule `CCN1CCN(Cc2ccc(Nc3ncc(F)c(-c4cc(F)c5nc(C)n(C(C)C)c5c4)n3)nc2)CC1` [abemaciclib], the “reduction of fluorescence intensity” value in experiment [1] (MCF‐7, inhibitor 10 nM) came to 14.37%; in experiment [1] (MCF‐7, inhibitor 100 nM) it was 50.13%; in experiment [1] (MCF‐7, inhibitor 1000 nM) it was 81.35%. Besides, in the experiment on CDK4, the IC50 – broadly, the concentration at which inhibition is half-maximal – is […].

As for `CC(=O)c1c(C)c2cnc(Nc3ccc(N4CCNCC4)cn3)nc2n(C2CCCC2)c1=O` [palbociclib], the “cells arrested in the G1 phase” value with MCF‐7 cells was “up to 86.39%”. For the same molecule, the “fluorescence intensity under a microscope” value in experiment [1] (MCF‐7, confocal/fluorescence microscopy after incubation with probe) is on record as “significant dose‐dependent reduction”. Further, the “reduction of fluorescence intensity” value in experiment [1] (MCF‐7, inhibitor 10 nM) came out at 3.17%; in experiment [1] (MCF‐7, inhibitor 100 nM), 44.70%; in experiment [1] (MCF‐7, inhibitor 1000 nM), 60.67%. In addition, the “change of tumor/muscle (T/M) fluorescence signal ratio” value is given as “–18.86%” with MCF‐7 tumor xenografts (12 h after caudal vein injection of probe), “–18.69%” in the experiment on MCF‐7 tumor xenografts (24 h after caudal vein injection of probe) and “–18.49%” with MCF‐7 tumor xenografts (48 h after caudal vein injection of probe). Moreover, the “longest diameter of the tumor by MRI” value with MCF‐7 tumor xenografts (150 mg/kg daily, day 0 vs day 7, n = 6) is “no significant change”. In the experiment with MCF‐7 tumor xenografts (after 14 days of treatment, n = 4), the tumor growth entry is “significantly inhibited”. In addition, in the experiment with MCF‐7 tumor xenografts (baseline vs day 7, immunohistochemical staining pRb (S795)), the “percentage of cells positive for pRb in tumors” value is recorded as “clear reductions”. The “tumor volume versus control group” value in the experiment with MCF‐7 tumor xenografts (during the 7 days of treatment, caliper) is given as “no significant difference”. Further, in the experiment on MCF‐7 tumor xenografts (palbociclib 7 days, 48 h post‐injection of probe, n = 3, p < 0.05), the “ex vivo fluorescence intensity of tumors versus control group” value was “significantly lower”. Further, the “Ki‐67 staining in tumors” value with MCF‐7 tumor xenografts (palbociclib 7 days, immunohistochemical staining) is reported as “substantially reduced”. In experiment [2], the “fluorescence intensity of CPP30‐Lipo/CDKACT4” value was “decreased with the increasing dose”. In addition, the “fluorescence of the CDKACT4 peptide biosensor” value at CDK4/Cyclin D is recorded as “decreased in a dose‐dependent manner”. For the same molecule, the “pRb (S795) protein level” value in experiment [3] is “dose‐dependent decrease”.
